Test results as given in patent publication US7132419B2, “Pharmaceutical compounds” (Xenova Limited, priority 2000, dated 2006).
pIC50: −log10 of the molar value.

Tests used:
[1] = system: Jurkat human leukaemia cell line (JLC); test: Cytotoxicity, Jurkat leukaemia cell line JLC; assay type: cell-based; conditions: concentration required to give 50% cell kill
Method: (§1) The cytotoxicity of the compounds described herein was also measured using the Jurkat human leukaemia cell line (JLC) and also the amsacrine-resistant Jurkat human leukaemia cell line (JLA) and the doxorubicin-resistant Jurkat human leukaemia cell line (JLD). The cytotoxicity, as measured by the IC50 (concentration required to give 50% cell kill) in the JLA or JLD cell line divided by the cytotoxicity in the JLC cell line gives an indication of the degree to which a compound may be affected by atypical drug resistance and is termed the resistance factor (Rf) of the compound. The method used has been described previously (Finlay et al, Eur J. Cancer 32A, 708–714, 1996). Compounds were active in the range 1 nM to 5 μM.

[2] = system: amsacrine-resistant Jurkat human leukaemia cell line (JLA); test: Cytotoxicity, amsacrine-resistant Jurkat cell line JLA; assay type: cell-based; conditions: for pIC50: concentration required to give 50% cell kill; for Rf (JLA/JLC): IC50 in JLA divided by IC50 in JLC, atypical drug resistance
Method: as §1

[3] = system: doxorubicin-resistant Jurkat human leukaemia cell line (JLD); test: Cytotoxicity, doxorubicin-resistant Jurkat cell line JLD; assay type: cell-based; conditions: for pIC50: concentration required to give 50% cell kill; for Rf (JLD/JLC): IC50 in JLD divided by IC50 in JLC, atypical drug resistance
Method: as §1

[4] = biological target: T1, topoisomerase I (Homo sapiens, UniProt P11387); test: Stabilisation of cleavable complexes, topoisomerase I; assay type: biochemical; conditions: range where an increase in cleavable complexes was observed relative to controls in the absence of drug
T1 sequence (P11387 1-765): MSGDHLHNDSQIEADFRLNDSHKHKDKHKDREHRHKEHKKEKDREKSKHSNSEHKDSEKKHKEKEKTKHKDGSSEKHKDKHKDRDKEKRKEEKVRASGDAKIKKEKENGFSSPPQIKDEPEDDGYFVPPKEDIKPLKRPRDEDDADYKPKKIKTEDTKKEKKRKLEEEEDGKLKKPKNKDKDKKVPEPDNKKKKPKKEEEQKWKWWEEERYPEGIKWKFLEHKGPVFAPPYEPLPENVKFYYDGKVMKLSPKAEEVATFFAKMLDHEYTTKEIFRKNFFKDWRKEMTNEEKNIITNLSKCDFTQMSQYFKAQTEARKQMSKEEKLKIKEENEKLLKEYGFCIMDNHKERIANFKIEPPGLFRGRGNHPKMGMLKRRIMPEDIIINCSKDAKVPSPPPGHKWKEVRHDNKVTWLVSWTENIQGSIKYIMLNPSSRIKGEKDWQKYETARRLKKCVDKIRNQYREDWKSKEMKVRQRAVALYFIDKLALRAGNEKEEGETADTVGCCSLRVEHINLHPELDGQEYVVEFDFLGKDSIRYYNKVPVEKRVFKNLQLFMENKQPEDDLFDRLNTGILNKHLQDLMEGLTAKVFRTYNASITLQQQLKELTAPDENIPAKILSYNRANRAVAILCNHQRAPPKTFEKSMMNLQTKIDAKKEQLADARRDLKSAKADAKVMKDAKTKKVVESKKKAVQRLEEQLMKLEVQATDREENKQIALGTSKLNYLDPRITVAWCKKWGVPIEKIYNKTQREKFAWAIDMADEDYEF
Text: (§2) Compounds were also studied for their ability to stabilize cleavable complexes in the presence of either topoisomerase I or II essentially as described previously (Finlay et al, Eur J. Cancer 32A, 708–714, 1996). Presence of cleavable complexes was indicated by an increase in the number and intensity of bands observed after electrophoresis and autoradiography. The results are expressed as the effective concentration range where an increase in cleavable complexes was observed relative to controls in the absence of drug.

[5] = system: topoisomerase II; test: Stabilisation of cleavable complexes, topoisomerase II; assay type: biochemical; conditions: range where an increase in cleavable complexes was observed relative to controls in the absence of drug
Text: as §2

[6] = system: H69 parental (H69/P) human small cell lung carcinoma cell line; test: Cytotoxicity, H69 parental cell line (AlamarBlue); assay type: cell-based; conditions: concentration required to give 50% cell kill, 5–6 days incubation
Method: (§3) The cytotoxicity of compounds of formula (I) was measured using the H69 parental (H69/P) human small cell lung carcinoma cell line and the drug resistant human small cell lung carcinoma cell line H69/LX4 which overexpresses P-glycoprotein (Pgp). The cytotoxicity, as measured by the IC50 (concentration required to give 50% cell kill) in the H69/LX4 cell line divided by the cytotoxicity in the H69/P cell line gives an indication of the degree to which a compound is affected by Pgp-dependent MDR and is termed the resistance factor (Rf) of the compound.
(§4) H69/P and H69/LX4 cells were pipetted into 96-well tissue culture plates and then allowed to incubate at 37° C. for 4 h. […] The plates were incubated for 5–6 days before adding AlamarBlue to each well and returning the plates to the incubator for 5–8 h to allow colour development. The cell numbers in the plates at the end of this period were directly proportional to the absorbance measured at a wavelength of 570 nm (reference wavelength 600 nm).

[7] = system: drug resistant human small cell lung carcinoma cell line H69/LX4 which overexpresses P-glycoprotein (Pgp); test: Cytotoxicity, drug resistant H69/LX4 cell line (AlamarBlue); assay type: cell-based; conditions: for pIC50: concentration required to give 50% cell kill, 5–6 days incubation; for Rf (resistance factor): IC50 in H69/LX4 divided by IC50 in H69/P, Pgp-dependent MDR
Method: as §3, §4

[8] = system: COR-L23 parental (COR-L23/P) human non-small cell lung carcinoma cell line; test: Cytotoxicity, COR-L23 parental cell line (SRB assay); assay type: cell-based; conditions: concentration required to give 50% cell kill, 5–6 days incubation
Method: (§5) The cytotoxicity of the compounds described herein was also measured using the COR-L23 parental (COR-L23/P) human non-small cell lung carcinoma cell line and also the drug resistant human non-small cell lung carcinoma cell line COR-L23/R which overexpresses multidrug resistance associated protein (MRP). The cytotoxicity, as measured by the IC50 (concentration required to give 50% cell kill) in the L23/R cell line divided by the cytotoxicity in the L23/P cell line gives an indication of the degree to which a compound may be affected by MRP-dependant MDR and is termed the resistance factor (Rf) of the compound.
(§6) L23/P and L23/R cells were pipetted into 96-well tissue culture plates and then allowed to incubate at 37° C. for 4 h. […] The plates were incubated for 5–6 days before proliferation was assessed using the sulphurhodamine B (SRB) assay as described by Skehan et al, J Natl Cancer Inst 1990, 82, pp 1107–1112.

[9] = Cytotoxicity, drug resistant COR-L23/R cell line (SRB assay); assay type: cell-based, human; conditions: Homo sapiens, COR-L23/R; concentration required to give 50% cell kill; 5–6 days incubation
Method: as §5, §6

[10] = system: drug resistant human non-small cell lung carcinoma cell line COR-L23/R which overexpresses multidrug resistance associated protein (MRP); test: as above; assay type: cell-based; conditions: for Rf (resistance factor): IC50 in L23/R divided by IC50 in L23/P, MRP-dependant MDR; for pIC50: concentration required to give 50% cell kill, 5–6 days incubation
Method: as §5, §6

SMILES | pIC50 ([1]; Homo sapiens, Jurkat) | pIC50 ([2]; Homo sapiens, Jurkat) | Rf (JLA/JLC) [2] | pIC50 ([3]; Homo sapiens, Jurkat) | Rf (JLD/JLC) [3] | Effective concentration range, Topoisomerase I [4] | Effective concentration range, Topoisomerase II [5] | pIC50 ([6]; Homo sapiens) | pIC50 ([7]; Homo sapiens) | Rf (resistance factor) [7] | pIC50 ([8]; Homo sapiens, COR-L23) | pIC50 [9] | Rf (resistance factor) [10] | pIC50 [6] | pIC50 [7] | pIC50 [8] | pIC50 [10] | pIC50 [1] | pIC50 [2] | pIC50 [3]
COc1cccc2c1ccc1nc3cccc(C(=O)NC(C)CN(C)C)c3nc12 (centres unmarked) [Compound 35, 4-Methoxy-benzo[a]phenazine-11-carboxylic acid (2-dimethylamino-1-methyl-ethyl)-amide] | 7.55 | 7.72 | 0.7 | 7.60 | 0.9 | 0.03 to 1.0 µM | 0.03 to 1.0 µM | – | – | – | – | – | – | – | – | – | – | – | – | –
CN(C)CCNC(=O)c1c(O)ccc2nc3ccc4c(O)cccc4c3nc12 [Compound 68, 4,10-Dihydroxy-benzo[a]phenazine-11-carboxylic acid (2-dimethylamino-ethyl)-amide] | – | – | – | – | – | – | – | 7.72 | 7.60 | 1.3 | 7.88 | 7.35 | 3.4 | – | – | – | – | – | – | –
COc1cccc2c1ccc1nc3cccc(C(=O)NC(CO)CN(C)C)c3nc12 (centres unmarked) [Compound 75, 4-Methoxy-benzo[a]phenazine-11-carboxylic acid (2-dimethylamino-1-hydroxymethyl-ethyl)-amide] | – | – | – | – | – | – | – | 7.64 | 7.55 | 1.2 | 7.89 | 7.76 | 1.3 | – | – | – | – | – | – | –
COc1cc(C(=O)NCCN(C)C)c2nc3c(ccc4c(OC)cccc43)nc2c1 [Compound 94, 4,9-Dimethoxy-benzo[a]phenazine-11-carboxylic acid (2-dimethylamino-ethyl)-amide] | 8.04 | 7.80 | 1.8 | 7.85 | 1.6 | – | – | 7.72 | 7.60 | 1.3 | 8.24 | 8.42 | 0.7 | – | – | – | – | – | – | –
CN(C)CCNc1nc2cc(O)ccc2c2c1C(=O)c1ccccc1-2 [TAS-103, reference compound] | – | – | 55.9 | – | 71.1 | 0.3 to 10.0 µM | 0.3 to 10.0 µM | – | – | 1.1 | – | – | 1.3 | 7.68 | 7.66 | 7.79 | 7.66 | 8.27 | 6.52 | 6.42
COc1cccc2c1ccc1nc3cccc(C(=O)NC(C)(CCO)N(C)C)c3nc12 (centres unmarked) [Compound 87, 4-Methoxy-benzo[a]phenazine-11-carboxylic acid [1-dimethylamino-1-(2-hydroxyethyl)]-ethylamide] | – | – | 1.0 | – | 1.0 | – | – | – | – | – | – | – | – | – | – | – | – | 7.80 | 7.80 | 7.77
CN(C)CCNC(=O)c1cccc2nc3ccc4c(OCC#N)cccc4c3nc12 [Compound 11, 4-Cyanomethoxy-benzo[a]phenazine-11-carboxylic acid (2-dimethylamino-ethyl)-amide] | – | – | – | – | – | – | – | 7.55 | 7.62 | 0.9 | 8.21 | 7.75 | 2.9 | – | – | – | – | – | – | –
COc1cccc2c1ccc1nc3cccc(C(=O)NC(CN(C)C)C(C)O)c3nc12 (centres unmarked) [Compound 84, 4-Methoxy-benzo[a]phenazine-11-carboxylic acid (1-dimethylaminomethyl-2-hydroxy-propyl)-amide] | 8.36 | 8.01 | 2.2 | 8.14 | 1.6 | 0.03 to 1.0 µM | 0.03 to 1.0 µM | 7.72 | 7.72 | 1 | – | – | – | – | – | – | – | – | – | –
COc1cccc2c1ccc1nc3cccc(C(=O)N[C@@H](CN(C)C)C(C)C)c3nc12 [Compound 98, (R)-4-Methoxy-benzo[a]phenazine-11-carboxylic acid(1-dimethylaminomethyl-2-methyl-propyl)-amide] | – | – | 2.1 | – | 1.6 | – | – | – | – | 1 | – | – | 0.9 | 7.68 | 7.70 | 8.02 | 8.06 | 8.07 | 7.74 | 7.85
COc1cccc2c1C(=O)c1c(O)c3c(c(O)c1C2=O)C[C@@](O)(C(=O)CO)C[C@@H]3O[C@H]1C[C@H](N)[C@H](O)[C@H](C)O1 [Doxorubicin, reference compound] | 8.15 | – | 3.7 | – | – | – | – | – | 5.43 | 135 | – | – | 16.1 | – | – | – | – | – | – | –
CC[C@@]1(O)C(=O)OCc2c1cc1n(c2=O)Cc2cc3c(CN(C)C)c(O)ccc3nc2-1 [Topotecan, reference compound] | – | – | – | – | – | – | – | – | – | 3.9 | – | – | 1.5 | – | – | – | – | – | – | –
COc1cccc2c1ccc1nc3cccc(C(=O)N[C@H](CO)CN(C)C)c3nc12 [Compound 81, 4-Methoxy-benzo[a]phenazine-11-carboxylic acid (2-dimethylamino-1-(S)-hydroxymethyl-ethyl)-amide] | 8.06 | 8.04 | 1.1 | 8.03 | 1.1 | – | – | 7.70 | 7.60 | 1.2 | 8.40 | 7.91 | 3.1 | – | – | – | – | – | – | –
CN(C)CCNC(=O)c1cccc2nc3ccc4cc(O)ccc4c3nc12 [Compound 2, 3-Hydroxy-benzo[a]phenazine-11-carboxylic acid (2-dimethylamino-ethyl)-amide] | 7.43 | 7.02 | 2.6 | 6.97 | 2.9 | – | – | – | – | – | – | – | – | – | – | – | – | – | – | –
